# In patent US20060159617A1, “Small technetium-99m and rhenium labeled agents and methods for imaging tissues, organs and tumors” (priority 2002, published 2006):
# Legend:
# [1] = tested on: DU145 human prostate carcinoma; assay: In-vivo tumor uptake / biodistribution, DU145 tumor-bearing nude mice; settings: 1 h
# Procedure: (§1) To study the tumor uptake of radiolabeled metal complexes, in vivo, biodistribution experiments at 1 h after their administration were carried out in C57B16 male mice with palpable B16 melanoma nodules and male nude mice bearing DU145 human prostate carcinoma in the hind limb.
# (§2) The biodistribution data including tumor/nontumor (T/NT) ratios for selected organs are summarized in Table 1 and 2 as percentage injected dose per gram (% ID/g).
# [2] = tested on: B16 melanoma; assay: In-vivo tumor uptake / biodistribution, B16 melanoma-bearing mice; settings: 1 h, B16/F0 melanoma mice
# Procedure: as §1, §2
# [3] = Determination of lipophilicity and pKa values by HPLC; format: physicochemical
# Procedure: The lipophilicity and pKa values of all complexes were determined using HPLC methods described previously (Stylli, C.; Theobald, A. E. Determination of Ionization Constants of Radiopharmaceuticals in Mixed Solvents by HPLC. Appl. Radiat. Isot., 1987, 38, 701-708; Johannsen, B.; Scheunemann, M.; Spies, H.; Brust, P.; Wober, J.; Syhre, R.; Pietzsch, H.-J. Technetium(V) and Rhenium(V) Complexes for 5-HT2A Serotonin Receptor Binding: Structure-Affinity Considerations. Nucl. Med. Biol., 1996, 23, 429-438; and Johannsen, B.; Berger, R.; Brust, P.; Pietzsch, H.-J.; Scheunemann, M.; Seifert, S.; Spies, H.; Syhre, R. Structural Modification of Receptor-Binding Technetium-99m Complexes in Order to Improve Brain Uptake. Eur. J. Nucl. Med. 1997, 24, 316-319). […] The mobile phase was acetonitrile:phosphate buffer (0.01 M), 3:1, v/v, with the aqueous buffer adjusted to the desired pH between 3 and 11. The capacity factor (k′) was calculated for each determination (Braumann, T.; Grimme, L. H. Determination of Hydrophobic Parameters for Pyridazinone Herbicides by Liquid-Liquid Partition and Reversed-Phase High-Performance Liquid Chromatography. J. Chromatogr. 1981, 206, 7-15; El Tayer, N.; van der Waterbeemd, H.; Testa, B. Lipophilicity Measurements of Protonated Basic Compounds by Reversed-Phase High-Performance Liquid Chromatography. II. Procedure for the Determination of a Lipophilic Index Measured by Reversed-Phase High Performance Liquid Chromatography. J. Chromatogr. 1985, 320, 305-312; and Minick, D. J.; Frenz, J. H.; Patrick, M. A.; Brent, D. A. A Comprehensive Method for Determining Hydrophobicity Constants by Reversed-Phase High-Performance Liquid Chromatography. J. Med. Chem., 1988, 31, 1923-1933) and the partition coefficient at a given pH (D or logD) were calculated from the equation: log D=a log k′+b where the parameters a and b are predetermined using standard amines. The fitted points of inflection from the sigmoidal DHPLC/pH profiles permit calculation of the pKHPLC(Stylli, C.; Theobald, A. E. Determination of Ionization Constants of Radiopharmaceuticals in Mixed Solvents by HPLC. Appl. Radiat. Isot., 1987, 38, 701-708). The aqueous ionization constants pKa were calculated from the pKHPLC values after correction with a predetermined correction factor obtained using standard amine compounds. Log P values of the neutral complexes were estimated from the respective upper plateau of the sigmoidal log D/pH curve in the alkaline range.
# [4] = molecular target: T1, σ2 receptor (Rattus norvegicus, UniProt Q5U3Y7); assay: σ2 receptor competition binding assay with [3H]-DTG, σ1 masked; settings: apparent Ki, rat liver membranes
# T1 construct: Rat liver membranes were prepared from male Sprague-Dawley rat livers as previously described; from tissue; host or cells: male Sprague-Dawley rat liver membranes
# T1 sequence (Q5U3Y7 1-176): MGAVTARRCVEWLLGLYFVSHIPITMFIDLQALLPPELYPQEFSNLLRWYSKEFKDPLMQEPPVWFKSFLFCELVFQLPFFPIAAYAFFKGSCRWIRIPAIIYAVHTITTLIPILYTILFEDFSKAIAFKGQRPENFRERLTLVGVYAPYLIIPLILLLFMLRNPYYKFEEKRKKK
# Procedure: Rat liver membranes were prepared from male Sprague-Dawley rat livers as previously described (Eur. J. Pharmacol.—Mol. Pharmacol. Sect. 1994, 268, 9-18). The in vitro σ2 receptor binding affinities of rhenium coordinated complexes were determined in a competition assay using rat livers and [^3H]-DTG (31 Ci/mmol, NEN Life Science Inc., Cambridge, Mass.) as radioligand in the presence of 10 μM 1-pyrrolidinylethyl 3,4-dichlorophenylacetate oxalate (ACT915 oxalate) to mask σ1 receptors (Bioorg. & Med. Chem. Lett. 2000, 10, 17-18). Competition assays were performed with twelve concentrations of the nonradioactive rhenium complexes ranging from 1×10^−10 to 1×10^−3 and protein samples (0.15 mg of membrane protein) in a total volume of 0.25 mL of Tris-HCl (50 mM, pH 8.0) for 120 min at 25° C. All other manipulations and data analysis were performed as described vide supra for the σ1-receptor assays.
# [5] = molecular target: α1 receptor; assay: Alpha-1 receptor competition binding assay with [3H]-Prazosin; settings: apparent Ki, rat frontal cortex
# Procedure: The in vitro α1 receptor binding affinities of rhenium coordinated complexes were determined in a competition assay using rat frontal cortex and high-affinity α1 ligand [^3H]-Prazosin (80 Ci/mmol, NEN Life Science Inc., Cambridge, Mass.). See, Eur. J. Nucl. Med. 2002, 29, 82-87.
# (§3) The frontal cortex of rat brain was prepared as described above and store at −70° C. until used in the binding assays. Ten concentrations of the nonradioactive rhenium complexes ranging from 1×10^−10 to 1×10^−3 and protein samples (0.15 mg of membrane protein) were incubated with 1.5 nM [^3H]-Prazosin in a total volume of 0.25 mL of Tris-HCl (50 mM, pH 7.4, 10 mM MgSO4). Incubations were carried out for 60 min at 25° C. All assays were terminated by dilution with 5 mL of ice-cold Tris-HCl (10 mM), pH 7.4, and solution were filtered through glass-fiber filters (Whatman GF/F; presoaked in 0.5% polyethyleneimine for 30 min at 25° C.). Filters were then washed three times with 5 mL of ice-cold Tris-HCl (50 mM, pH 7.4), and counted in Hionic-Fluor cocktail (Packard, Groningen, the Netherlands). The corresponding IC50 values were determined with Origin 6.0 software (OriginLab, Northampton, Mass.) and were used for the calculation of the apparent Ki values with the Cheng-Prusoff equation. See, Biocheni. Pharmacol. 1973, 22, 3099-3108.
# [6] = molecular target: T2, σ1 receptor (Cavia porcellus, UniProt Q60492); assay: Sigma-1 receptor competition binding assay with [3H]-(+)-pentazocine; design: species or system guinea pig; settings: apparent Ki (Cheng-Prusoff), brain membranes
# T2 construct: The membranes were prepared from guinea pig brain (minus cerebellum) as described above; from tissue; host or cells: guinea pig brain (minus cerebellum) membranes
# T2 sequence (Q60492 whole entry): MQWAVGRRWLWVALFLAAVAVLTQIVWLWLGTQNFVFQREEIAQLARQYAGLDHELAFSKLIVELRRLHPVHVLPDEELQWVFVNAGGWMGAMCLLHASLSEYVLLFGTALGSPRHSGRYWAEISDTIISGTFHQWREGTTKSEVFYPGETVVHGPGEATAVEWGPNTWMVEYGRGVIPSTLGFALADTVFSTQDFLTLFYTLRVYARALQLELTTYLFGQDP
# Procedure: The in vitro σ1 receptor binding affinities of rhenium coordinated complexes were determined in a competition assay using […] and high-affinity σ1 ligand [3H]-(+)-pentazocine (28 Ci/mmol, NEN Life Science Inc., Cambridge, Mass.). See, Mol. Neuropharmacol. 1993, 3, 117-126.
# The membranes were prepared from guinea pig brain (minus cerebellum) as described above and stored at −70 ° C. Twelve concentrations of the nonradioactive rhenium complexes ranging from 1×10^−11 to 1×10^−3 and protein samples (0.15 mg of membrane protein) were incubated with […] [3H]-(+)-pentazocine in a total volume of 0.25 mL of Tris-HCl (50 mM, pH 8.0). Incubations were carried out for 120 min at 25° C. All assays were terminated by dilution with 5 mL of ice-cold Tris-HCl (10 mM), pH 8.0, and solution were filtered through glass-fiber filters (Whatman GF/F; presoaked in 0.5% polyethyleneimine for 30 min at 25° C.). Filters were then washed three times with 5 mL of ice-cold Tris-HCl (50 mM, pH 8.0), and counted in Hionic-Fluor cocktail (Packard, Groningen, the Netherlands). The corresponding IC50 values were determined with Origin 6.0 software (OriginLab, Northampton, Mass.) and were used for the calculation of the apparent Ki values with the Cheng-Prusoff equation. See, Biochem. Pharmacol. 1973, 22, 3099-3108.
# [7] = molecular target: T3, 5HT1A receptor (Rattus norvegicus, UniProt P19327); assay: 5HT1A receptor competition binding assay with [3H]-8-OH-DPAT; settings: apparent Ki, rat hippocampus
# T3 construct: The brains were rapidly removed, and hippocampus, frontal cortex, hypothalamus, and striatum were hand-dissected on ice; from tissue; host or cells: male Sprague-Dawley rat hippocampus membranes
# T3 sequence (P19327 1-422): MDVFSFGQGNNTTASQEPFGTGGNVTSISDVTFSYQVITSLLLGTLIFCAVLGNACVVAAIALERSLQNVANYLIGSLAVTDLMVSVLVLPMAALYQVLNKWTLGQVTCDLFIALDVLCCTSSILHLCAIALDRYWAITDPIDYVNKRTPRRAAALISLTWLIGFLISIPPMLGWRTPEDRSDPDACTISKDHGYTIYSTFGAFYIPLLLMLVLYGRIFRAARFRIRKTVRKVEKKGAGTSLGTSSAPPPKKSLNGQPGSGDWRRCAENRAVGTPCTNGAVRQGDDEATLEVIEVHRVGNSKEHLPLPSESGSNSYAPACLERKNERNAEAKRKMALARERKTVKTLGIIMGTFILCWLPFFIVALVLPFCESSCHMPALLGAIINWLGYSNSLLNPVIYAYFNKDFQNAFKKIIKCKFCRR
# Procedure: The in vitro 5HT1A binding affinities of rhenium coordinated complexes were determined in a competition assay using rat hippocampus and high-affinity 5HT1A-ligand [^3H]-8-OH-DPAT (135 Ci/mmol, NEN Life Science Inc., Cambridge, Mass.). See, Brain Res. 1995, 673, 217-225.
# Male Sprague-Dawley rats (weighing 150-170 g) were sacrificed using anesthesia agent isoflurane. The brains were rapidly removed, and hippocampus, frontal cortex, hypothalamus, and striatum were hand-dissected on ice and stored at −70° C. Tissue was thawed at room temperature and homogenized using a Brinkmann Polytron tissue disrupter in 50 volumes (wt/vol) of ice-cold 50 mM Tris-HCl buffer (pH 7.4). The suspension was centrifuged twice at 27,000 g for 20 min at 4° C. The membrane pellets were resuspended in 50 volumes of (wt/vol) Tris-HCl buffer and incubated at 37° C. for 20 min in a water bath, before a final centrifugation step (27,000 g; 20 min; 4° C.). The final tissue pellets were stored at −70° C. until assayed.
# as §3, with “Twelve” for “The frontal cortex of rat brain was prepared as described above and store at −70° C. until used in the binding assays. Ten”, “1×10^−11” for “1×10^−10”, “1×10^−4” for “1×10^−3”, “[^3H]-8-OH-DPAT” for “[^3H]-Prazosin”, “Biochem.” for “Biocheni.”
compound,measurement,setting,value
O=C1CN(CCCN2CCC(Cc3ccccc3)CC2)CC[S][99Tc]2(=[O])[S]CC[N]12 (centres unmarked) [Re 99mTc-15],Tumor/Blood ratio,[1],7.93
same,Tumor/Liver ratio,[1],0.21
same,Tumor/Lung ratio,[1],0.25
same,Tumor/Muscle ratio,[1],2.33
same,Blood %ID/g,[1]; blood,0.31 %ID/g
same,Brain %ID/g,[1]; brain,0.51 %ID/g
same,Heart %ID/g,[1]; heart,1.82 %ID/g
same,Intestine %ID/g,[1]; intestine,20.94 %ID/g
same,Kidney %ID/g,[1]; kidney,7.92 %ID/g
same,Liver %ID/g,[1]; liver,12.06 %ID/g
same,Lung %ID/g,[1]; lung,9.96 %ID/g
same,Muscle %ID/g,[1]; muscle,1.06 %ID/g
same,Skin %ID/g,[1]; skin,1.76 %ID/g
same,Spleen %ID/g,[1]; spleen,7.56 %ID/g
same,Stomach %ID/g,[1]; stomach,5.26 %ID/g
same,Tumor %ID/g,[1]; tumor,2.46 %ID/g
same,Tumor/Blood ratio,[2],7.47
same,Tumor/Liver ratio,[2],0.21
same,Tumor/Lung ratio,[2],0.31
same,Tumor/Muscle ratio,[2],3.57
same,Blood %ID/g,[2]; blood,0.44 %ID/g
same,Brain %ID/g,[2]; brain,0.48 %ID/g
same,Heart %ID/g,[2]; heart,1.87 %ID/g
same,Intestine %ID/g,[2]; intestine,14.38 %ID/g
same,Kidney %ID/g,[2]; kidney,7.66 %ID/g
same,Liver %ID/g,[2]; liver,10.23 %ID/g
same,Lung %ID/g,[2]; lung,15.60 %ID/g
same,Muscle %ID/g,[2]; muscle,0.90 %ID/g
same,Skin %ID/g,[2]; skin,1.21 %ID/g
same,Spleen %ID/g,[2]; spleen,5.95 %ID/g
same,Stomach %ID/g,[2]; stomach,6.81 %ID/g
same,Tumor %ID/g,[2]; tumor,3.18 %ID/g
O=C1CN(CCCN2CCC(O)(c3ccc(Cl)cc3)CC2)CC[S][Re]2(=[O])[S]CC[N]12 (centres unmarked) [Re-18],k' (pH = 7.4),[3]; HPLC capacity factor at pH 7.4,29.7
same,k' (Max),"[3]; HPLC capacity factor, maximum",37.5
same,pKa (Corrected),"[3]; HPLC method, corrected with standard amines",7.26
same,Ki,[4],528 ± 111 nM
same,Ki,[5],980 ± 180 nM
same,Ki,[6],2960 nM
O=C1CN(CCCN2CCC(c3ccccc3)CC2)CC[S][Re]2(=[O])[S]CC[N]12 (centres unmarked) [Re-21],Ki,[7],55.7 ± 8.3 nM
same,Ki,[4],84.6 ± 7.9 nM
same,Ki,[5],39 ± 4 nM
same,Ki,[6],553 nM
O=C(CN1CC[S][Re]2(=[O])[S]CC[N]2C(=O)C1)NC1CCN(Cc2ccccc2)CC1 (centres unmarked) [Re-22],Ki,[4],4710 ± 986 nM
same,Ki,[6],5510 nM
